Here are results for 16 compounds from PubChem BioAssay (NCI).

Test in all cases: NCI anticancer screen, dose series, 48 h
Test [1] has as its system NCI-H460 lung.
Test [2] relates to SNB-75 CNS.
Test [3] has as its system SR leukemia.
In test [4] the test system is KM12 colon.
Test [5] has as its system SF-539 CNS.
Test [6] concerns EKVX NSCLC.
Test [7] deals with NCI-H226 lung.
Test [8] relates to SNB-19 CNS.
In test [9] the test system is 786-0 renal.
For test [10], the system named is UACC-62 melanoma.

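Compound exposure: 48 hours, 5 concentrations, 96-well plates. The concentration for 50% growth inhibition is given as GI50. At the TGI there is no net growth.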 A value given as a limit tells only on which side of the number the result lay.

`NC1=CC(=O)C(=O)c2ccccc21`: the GI50 is 33.8 µM in test [1]; 13.8 µM in test [2]; 23.3 µM in test [3]; 18.2 µM in test [4]; 21.5 µM in test [5]; 18.3 µM in test [6]. Besides, the GI50 is 18.8 µM in test [7], 20.4 µM in test [8], 25 µM in test [9] and 3.33 µM in test [10]. The TGI in test [1] was more than 100 µM; in test [2] it was 27.1 µM; in test [3] it was more than 100 µM; in test [4] it was 53.4 µM; in test [5] it was 40.9 µM; in [6], 55.8 µM. For the same compound, the TGI in [7] stood at 42.1 µM; in test [8] it was 79.9 µM; in test [9] it was 79.8 µM; in test [10] it was 15.7 µM.

For `Cn1c(=S)c2[nH]c(SCc3cccnc3)nc2n(C)c1=O`, the TGI in test [1], in test [2], in [3], in [4], in test [5] and in [6] was more than 100 µM throughout. Besides, the TGI in test [7], in [8], in test [9] and in test [10] was more than 100 µM throughout.

As for `COc1ccccc1NC(=O)C1=C(C)NC(C)=C(C(=O)Nc2ccccc2OC)C1c1ccc(C2C(C(=O)Nc3ccccc3OC)=C(C)NC(C)=C2C(=O)Nc2ccccc2OC)cc1`, the TGI in [1] amounted to 12.6 µM; in test [2], 25 µM; in test [3], 9.93 µM; in [4], 3.38 µM; in [5] it was 3.24 µM; in test [6], 6.91 µM. Besides, the TGI in [7] came out at 12.1 µM; in [8], 12.5 µM; in test [9] it was 4.22 µM; in [10], 3.26 µM.

With `CCC1C[N+]2=C(c3cc(OC)c(OC)cc3CC2)c2c1cc1n2CCc2cc(OC)c(OC)cc2-1` (stereo unspecified), the GI50 in [1] was 2.82 µM; in test [2], 1.77 µM; in test [3], 3.1 µM; in test [4] it was 1.5 µM; in [5], 3.34 µM; in [6], 6.62 µM. The GI50 is 7.49 µM in [7], 2.75 µM in test [8], 11 µM in [9] and 1.93 µM in test [10]. Moreover, the TGI in test [1] is 12.1 µM; in test [2], 7.48 µM; in test [3], more than 100 µM; in [4], 10.9 µM; in [5], 14.9 µM; in [6] it was more than 100 µM. Besides, the TGI in [7] is 21.2 µM; in [8], 15.7 µM; in test [9] it was 30.1 µM; in [10], 6.03 µM.

Consider `COc1ccc(/C=N/C2=NNC(C)(c3ccccc3O)N2C(Cc2c[nH]c3ccccc23)C(=O)O)cc1` (stereo unspecified), for which the GI50 in test [1] was 2.55 µM; in [2], 1.72 µM; in test [3], 2.76 µM; in [4], 2.6 µM; in [5] it was 2.75 µM; in test [6] it was 1.96 µM. In addition, the GI50 in test [7] was 2.16 µM; in test [8], 3.76 µM; in test [9] it was 3.36 µM; in [10] it was 1.86 µM. Moreover, the TGI is 8.51 µM in test [1]; 13.4 µM in [2]; 12.4 µM in test [3]; 10.2 µM in test [4]; 10.3 µM in test [5]; 10.8 µM in test [6]. For the same compound, the TGI in test [7] came out at 10.3 µM; in [8] it was 14.6 µM; in [9], 13 µM; in test [10], 5.53 µM.

As for `COc1ccc2cn3c4ccc(O)cc4[nH]c(=O)c3c2c1`, the GI50 in test [1] was 0.114 µM; in test [2], 0.162 µM; in test [3], 0.0556 µM; in test [4], 0.0846 µM; in test [5], 0.104 µM; in [6] it was 0.778 µM. Further, the GI50 in test [7] was 0.313 µM; in test [8], 0.206 µM; in [9], 0.278 µM; in test [10], 0.58 µM. Moreover, the TGI in [1] was determined as 10.8 µM; in [2], 18.5 µM; in test [3], 3.87 µM; in test [4], 14.9 µM; in test [5], 12.5 µM; in test [6], 20.7 µM. Moreover, the TGI came to 22.3 µM in test [7], 18.7 µM in test [8], 13.4 µM in test [9] and 18.1 µM in [10].

For the compound `Nc1n[nH]c2cc(F)c([C@@H]3Nc4c(F)cc5[nH]ncc5c4[C@H]4C5CCC(C5)[C@@H]34)cc12` (stereo partly specified), the GI50 was 0.117 µM in [1]; 0.0894 µM in test [2]; 0.115 µM in [3]; 0.129 µM in test [4]; 0.0792 µM in test [5]; 0.167 µM in [6]. Besides, the GI50 was 0.141 µM in test [7], 0.134 µM in test [8], 0.211 µM in test [9] and 0.162 µM in test [10]. In addition, the TGI amounted to 3.57 µM in test [1]; 0.635 µM in test [2]; 11.1 µM in [3]; 0.853 µM in test [4]; 0.23 µM in test [5]; 23.4 µM in [6]. Also, the TGI stood at 1.41 µM in [7], 14.9 µM in test [8], 7.85 µM in test [9] and 6.77 µM in test [10].

Take `COc1ccc(OC)c(-c2nc3sc(C)cn3c2/C=C2\C(=O)N(C)c3ccccc32)c1`: the GI50 is 18.7 µM in test [1]; 17.9 µM in test [2]; 1.89 µM in [3]; 21.9 µM in [4]; 21.8 µM in [5]; 32.2 µM in test [6]. The GI50 in test [7] is 29.8 µM; in test [8], 26.4 µM; in test [9], 27.6 µM; in [10] it was 13.4 µM. Besides, the TGI in test [1] is 44.2 µM; in [2], 47.9 µM; in test [3], 18.5 µM; in [4], 68.5 µM; in test [5] it was 42.5 µM; in test [6], more than 100 µM. The TGI was more than 100 µM in test [7], 94.7 µM in [8], 74.6 µM in [9] and 31.1 µM in test [10].

As to `COc1ccc(C#CC2=C(Br)C(=O)OC2)cc1`, the GI50 is 10 µM in [1]; 1.29 µM in test [2]; 2.63 µM in test [3]; 3.05 µM in [4]; 5.15 µM in [5]; 6.9 µM in test [6]. For the same compound, the GI50 in test [7] is 13.3 µM; in [8], 12 µM; in [9], 21.5 µM; in test [10] it was 6.48 µM. In addition, the TGI was more than 50 µM in test [1]; 16.6 µM in [2]; more than 50 µM in test [3]; 11 µM in [4]; 16.8 µM in [5]; 17 µM in [6]. Also, the TGI in test [7] is 34.6 µM; in test [8], more than 50 µM; in test [9] it was more than 50 µM; in [10], 12.8 µM.

In the case of `COc1ccc(C(=O)c2cc(C)c(OC)c(C)c2)c(OC)c1OC(=O)C(Cl)Cl`, the GI50 is 0.0629 µM in [1]; 0.031 µM in test [2]; 0.0181 µM in test [3]; 0.0362 µM in [4]; 0.0238 µM in [5]; 0.321 µM in [6]. In addition, the GI50 in test [7] was 2.41 µM; in test [8], 0.0432 µM; in test [9], 0.396 µM; in [10] it was 0.657 µM. Further, the TGI is 3.27 µM in test [1]; more than 100 µM in test [2]; more than 100 µM in test [3]; more than 100 µM in [4]; 0.0702 µM in test [5]; more than 100 µM in [6]. The TGI is 7.03 µM in test [7], more than 100 µM in [8], more than 100 µM in [9] and more than 100 µM in test [10].

For `N#CC1=C(N)Oc2c(ccc3cccnc23)C1c1ccccc1` (stereo unspecified), the TGI in test [1] is more than 46.3 µM; in [2] it was 3.5 µM; in test [3] it was 29 µM; in [4] it was 17.1 µM; in test [5], 4.87 µM; in [6] it was more than 100 µM. The TGI in test [7] was 50.9 µM; in test [8], more than 74.1 µM; in test [9], more than 100 µM; in test [10] it was 24.6 µM. In test [7], the GI50 was 11.4 µM.

Take `O=C(c1nc2ccc(Cl)cc2[nH]c1=O)C(O)c1cccc([N+](=O)[O-])c1` (stereo unspecified): the TGI in test [1], in test [2], in [3], in [4], in test [5] and in test [6] was more than 100 µM each time. For the same compound, the TGI in [7], in test [8], in test [9] and in [10] was more than 100 µM throughout.

On to `CN(C)C(=S)/N=C(\N)N(C)C`, for which the TGI in [1], in [2], in [3], in test [4], in test [5] and in test [6] was more than 100 µM throughout. Moreover, the TGI in [7], in test [8], in [9] and in test [10] was more than 100 µM throughout.

Turning to `COc1cc2c3c(n(CCCN=[N+]=[N-])c(=O)c2cc1OC)-c1ccc(NC(C)=O)cc1C3=O`, the GI50 in [1] is 8.97 µM; in test [2], 25.8 µM; in test [3] it was 4.85 µM; in test [4] it was more than 50 µM; in test [5] it was more than 50 µM; in test [6] it was more than 50 µM. For the same compound, the GI50 in test [7], in test [8], in test [9] and in test [10] was more than 50 µM in each case. In addition, the TGI in test [1], in test [2], in test [3], in test [4], in test [5] and in test [6] was more than 50 µM in each case. The TGI in test [7], in [8], in [9] and in [10] was more than 50 µM each time.

On to `CCOC(=O)CC1C(CNC(=O)NC)OC(n2cnc3c(NC(=O)Nc4ccccc4)ncnc32)C1O[Si](C)(C)C(C)(C)C` (stereo unspecified), for which the GI50 in test [1] is 5.53 µM; in [2], 4.56 µM; in test [3], 2.23 µM; in [4], 3.95 µM; in [5], 5.19 µM; in test [6] it was 17.7 µM. Besides, the GI50 in test [7] is more than 100 µM; in test [8] it was 29 µM; in [9] it was 2 µM; in test [10], more than 100 µM. In addition, the TGI is 25 µM in test [1]; more than 100 µM in test [2]; 7.07 µM in test [3]; 20.9 µM in test [4]; more than 100 µM in test [5]; more than 100 µM in test [6]. The TGI in test [7] was more than 100 µM; in [8] it was more than 100 µM; in test [9], 5.21 µM; in test [10] it was more than 100 µM.

In the case of `COc1ccc(-c2cncn2-c2ccc(-c3nc4cc(OC)c(OC)c(OC)c4s3)cc2)cc1N`, the GI50 in [1] was 4.69 µM; in [2], 52.3 µM; in test [3], 3.43 µM; in test [4], 3.8 µM; in [5], more than 100 µM; in test [6], 7.54 µM. Moreover, the GI50 in [7] was 6.7 µM; in test [8] it was more than 100 µM; in [9] it was 5.73 µM; in test [10], 9.04 µM. For the same compound, the TGI in [1], in test [2], in test [3], in test [4], in test [5] and in test [6] was more than 100 µM each time. Moreover, the TGI in test [7], in test [8], in test [9] and in test [10] was more than 100 µM each time.
